Test results: patent publication US20240115672A1, “TREATMENT OF AN IOP CONDITION” (THE RESEARCH FOUNDATION FOR THE STATE UNIVERSITY OF NEW YORK, priority 2021, published 2024)

Legend:
[1] = test system: sheep of the Corriedale breed; assay: IOP in prednisolone-treated sheep after intravitreal tPA (Example 3, Protocol 1); assay type: in vivo
Experimental: Methods. The inventors used recombinant human tissue plasminogen activator (rtPA) ([…]; Boehringer Ingelheim SA, Buenos Aires, Argentina) in two different protocols.
Protocol 1. 8 sheep of the Corriedale breed were treated with prednisolone acetate three times a day in both eyes, leading to elevated IOP. After one week, the animals received intravitreal injections of human recombinant tPA (100, 200, 500 and 1000 μg, two animals each) dissolved in balanced salt solution (BSS) in one eye. IOP was monitored for 19 more days while the animals continued to receive treatment with prednisolone. Periodic slit lamp examination was also performed.

sheep = assay: Sheep given tPA or arginine concurrently with prednisolone (Example 3 Protocol 2, Example 4); assay type: in vivo; settings: 11 days
Experimental: Protocol 2. In a second set of experiments, arginine was added to the BSS vehicle administered to the left eye to control for the relatively high concentration of the amino acid in the commercially available tPA lyophilisate. In these experiments all right eyes received 0.1 mg tPA, which concomitantly delivered 4.23 mg of arginine into the vitreous, and the left eye received this same amount of arginine, absent the tPA. On Day 1, prednisolone treatments were also begun simultaneously on both eyes.
Methods. In this experiment, the inventor sought to detect the effects of tPA treatment on prevention of steroid-induced IOP elevation. In 4 sheep tPA was injected in one eye (100 μg) and they were started on prednisolone acetate three times a day in both eyes. Animals were monitored for 11 days on continuous treatment.

[2] = test system: Mmp-2, Mmp-9, Mmp-13 and Plat mRNA; assay: Mmp and Plat expression in protein treated C57BL/6J eyes without steroids (Example 15); assay type: in vivo, mouse; settings: non-steroid treated C57BL/6 eyes; group means versus BSA; p>0.05
[3] = test system: MMP-2, MMP-9, MMP-13 expression in HTM cells; assay: MMP expression in HTM cells (Examples 17, 18); assay type: cell-based, human; settings: PA treated HTM cells; p<0.0001
[4] = test system: Mmp-2, Mmp-9, Mmp-13 mRNA in angle ring tissues; assay: Mmp expression in Tg-MYOCY437H angle ring tissues (Example 19); assay type: in vivo, mouse
Experimental: Eyes were flash frozen in liquid nitrogen after outflow facility determination and subsequently dissected on ice to obtain the angle ring tissues containing the TM, as previously described (Kumar, Shah et al. 2013). Dissected TM tissues were immersed in RNAlater solution (Invitrogen, Waltham, MA, USA) and then snap-frozen and stored at −80° C. until RNA extraction. Tissue collected was pooled (four eyes) and homogenized in TRIzol reagent for RNA isolation, per manufacturer's instructions (Life Technologies, Carlsbad, CA, USA). RNA concentration was determined with a Nanodrop ND-1000 Spectrophotometer (Thermo Scientific, Wilmington, DE, USA). cDNA was synthesized by using High-Capacity cDNA
Reverse Transcription Kit (Applied Biosystems, Waltham, MA, USA) according to manufacturer's protocol. Quantitative real-time PCR (qRT-PCR) was performed by using Green-2-Go qPCR Mastermix-ROX (Bio Basic, Amherst, NY, USA) on a QuantStudio 6 Flex thermal cycler (Applied Biosystems, Carlsbad, CA, USA). mRNA expression of Plat, Plait, Pai-1, Mmp-2, Mmp-9, and Mmp-13 in angle ring tissues was determined. Primers were designed by using Primer-BLAST (haps://www.ncbi.nlm.nih.gov/tools/primer-blast/index.cgi?LINK_LOC=BlastHome; in the public domain); primer sequences are listed in Table 2. Primer specificity was confirmed by agarose gel electrophoresis and multiple-sized amplification products were absent on inspection of melting curves. Target mRNA expression values were normalized to the expression levels of Rps11 (ribosomal protein S11). The relative fold change was calculated by using the ΔΔCt method (Hu, Wang et al. 2015). Outliers identified via the Thompson Tau test were removed from analysis.

[5] = intravitreal; toxicity attributed to arginine in the commercial preparations; cited from earlier work
[6] = 2 days after intravitreal protein

In the case of “tPA: recombinant human tissue plasminogen activator (ACTILYSE; Boehringer Ingelheim), enzymatically active”, the “dose dependence of the IOP effect” value ([1]; 100, 200, 500 and 1000 μg, p>0.05 ANOVA) is reported as “independent of the dose”, the ocular findings ([1]; intravitreal tPA, unrelated to the dose injected) is reported as “Transient injection and corneal clouding was observed in some eyes” and the “mean (±SD) IOP after tPA” value ([1]; within 24 h of intravitreal tPA, all doses tested (100-1000 μg), prednisolone continued, before 24.1 (±1.6)) is reported as 14.1 (±1.1) mmHg. For the same substance, the “effect on steroid-induced IOP elevation” value (sheep; 100 μg in one eye concurrent with prednisolone acetate three times a day) was “prevented IOP elevation”, the ocular findings (sheep; 100 μg tPA) was “Transient injection and corneal clouding was observed in some eyes” and the “gene expression changes in Mmp-2, Mmp-9, and Mmp-13” value [2] was “not significantly different”. The “expression (FIG. 17C) compared to PA+BSA treated cells” value [3] was “significant upregulation”, the “Mmp-2 expression compared to BSA treated eyes” value [4, 6] was “no significant difference” and the “Mmp-9 expression compared to BSA treated eyes” value [4, 6] was “not detected”. For the same substance, the “Mmp-13 expression compared to BSA treated eyes” value ([4]; 2 days after intravitreal protein, p<0.01) was “significantly higher”, the “Mmp-9 expression compared to BSA treated eyes” value ([4]; 5 days treatment) was “higher” and the “Mmp-13 expression compared to BSA treated eyes” value ([4]; 5 days treatment) was “significantly higher”. The “Mmp-2 expression compared to BSA treated eyes” value ([4]; 5 days treatment, p>0.05) was “no significant difference” and the “doses with reported retinal toxicity” value [5] was 50-100 lag.
